Experimental data reported in article PMC13079941 (Proceedings of the National Academy of Sciences of the …, 2026).

Biological target: T1, CsRD21a (Citrus sinensis, UniProt A0ACB8KUT6)
T1 construct: gene KPL71_016607; full-length, untagged, expressed transiently in Nicotiana benthamiana; secreted, prodomain removed in planta, active forms 25-35 kDa; concentrated apoplastic fluid, not purified
Experiment: competitive activity-based protein profiling, DCG-04 / streptavidin-HRP blot
Assay type: biochemical
Conditions: apoplastic fluid; 30 min preincubation; 50 mM sodium acetate pH 5.0, 5 mM DTT, room temperature

T1 sequence (A0ACB8KUT6 139-468): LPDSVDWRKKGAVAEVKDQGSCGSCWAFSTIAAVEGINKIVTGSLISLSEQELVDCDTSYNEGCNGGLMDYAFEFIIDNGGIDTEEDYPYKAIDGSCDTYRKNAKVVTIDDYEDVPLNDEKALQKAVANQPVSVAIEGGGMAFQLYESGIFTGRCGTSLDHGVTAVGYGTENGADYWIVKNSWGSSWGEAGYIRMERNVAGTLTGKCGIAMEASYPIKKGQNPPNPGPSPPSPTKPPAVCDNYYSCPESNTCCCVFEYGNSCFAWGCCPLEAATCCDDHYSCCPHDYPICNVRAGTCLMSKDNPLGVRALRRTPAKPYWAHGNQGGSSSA

CC(C)C[C@H](NC(=O)[C@H]1O[C@@H]1C(=O)O)C(=O)NCCCCNC(=N)N [E-64]
decrease of DCG-04 labelling, dosage-dependent: This signal decreased in the presence of the cysteine protease inhibitor E-64 in a dosage-dependent manner
